Source: patent US9995734B2, “Human T cell line assay for evaluating the immunologic identity of glatiramer acetate preparations” (Mylan Inc., priority 2013, dated 2018)
“And” between values parts separate entries of the source, which are not always exact repeats. Identical values can stand only once.

Tests used:
Donor 3 GMA T-Cell Lines = test: ATP proliferation assay (CellTiter Glo), Donor 3 GMA T-cell lines, incl. reactivity to non-canonical GA peptides; format: cell-based, human
Donor 3 COP T-Cell Lines = test: ATP proliferation assay (CellTiter Glo), Donor 3 COP T-cell lines, incl. reactivity to non-canonical GA peptides; format: cell-based, human; details: for Non-Canonical Peptide Non-Reactivity: proliferation <2 times no antigen control

For poly (Glu-Ala-Tyr; 6:3:1) [GAT 631], the “Proliferation (luminescent ATP assay), Mean” value (“Proliferation … Mean” for short) (Donor 3 GMA T-Cell Lines; T-cell line 165-E7G, 3 μg/mL antigen, Day 81 of culturing, No Antigen Value 2145) was 6457 RLU, the “Proliferation … Mean” value (Donor 3 GMA T-Cell Lines; T-cell line 165-E7G, 5 μg/mL antigen, autologous B-LCL, Day 55) was 2950 RLU and the “Proliferation … Mean” value (Donor 3 GMA T-Cell Lines; T-cell line 165-E7G, 10 μg/mL antigen, Day 81 of culturing, No Antigen Value 2145) was 5499 RLU. For the same substance, the “Proliferation … Mean” value (Donor 3 GMA T-Cell Lines; T-cell line 165-E7G, 10 μg/mL antigen, autologous B-LCL, Day 55) was 3877 RLU, the “Proliferation … Mean” value (Donor 3 GMA T-Cell Lines; T-cell line 165-E7G, 30 μg/mL antigen, Day 81 of culturing, No Antigen Value 2145) was 4178 RLU and the “Proliferation … Mean” value (Donor 3 GMA T-Cell Lines; T-cell line 165-E9G, 1 μg/mL antigen, Day 50 of culturing, No Antigen Value 1742) was 1482 RLU. For the same substance, the “Proliferation … Mean” value (Donor 3 GMA T-Cell Lines; T-cell line 165-E9G, 1.25 μg/mL antigen, autologous B-LCL) was 122 RLU, the “Proliferation … Mean” value (Donor 3 GMA T-Cell Lines; T-cell line 165-E9G, 2.5 μg/mL antigen, autologous B-LCL) was 175 RLU and the “Proliferation … Mean” value (Donor 3 GMA T-Cell Lines; T-cell line 165-E9G, 3 μg/mL antigen, Day 50 of culturing, No Antigen Value 1742) was 1593 RLU. For the same substance, the “Proliferation … Mean” value (Donor 3 GMA T-Cell Lines; T-cell line 165-E9G, 5 μg/mL antigen, autologous B-LCL) was 207 RLU, the “Proliferation … Mean” value (Donor 3 GMA T-Cell Lines; T-cell line 165-E9G, 10 μg/mL antigen, autologous B-LCL) was 179 RLU and the “Proliferation … Mean” value (Donor 3 GMA T-Cell Lines; T-cell line 165-E9G, 30 μg/mL antigen, Day 50 of culturing, No Antigen Value 1742) was 1382 RLU. For the same substance, the “Proliferation … Mean” value (Donor 3 GMA T-Cell Lines; T-cell line 165-E9G, 10 μpg/mL antigen, Day 50 of culturing, No Antigen Value 1742) was 1454 RLU, the “Proliferation … Mean” value (Donor 3 GMA T-Cell Lines; T-cell line 165-F5G, 1.25 μg/mL antigen, autologous B-LCL) was 118 RLU and the “Proliferation … Mean” value (Donor 3 GMA T-Cell Lines; T-cell line 165-F5G, 2.5 μg/mL antigen, autologous B-LCL) was 160 RLU. The “Proliferation … Mean” value (Donor 3 GMA T-Cell Lines; T-cell line 165-F5G, 5 μg/mL antigen, autologous B-LCL) was 106 RLU, the “Proliferation … Mean” value (Donor 3 GMA T-Cell Lines; T-cell line 165-F5G, 10 μg/mL antigen, autologous B-LCL) was 130 RLU and the “Proliferation … Mean” value (Donor 3 GMA T-Cell Lines; T-cell line 165-F10G, 1 μg/mL antigen, Day 50 of culturing, No Antigen Value 3752) was 3755 RLU. For the same substance, the “Proliferation … Mean” value (Donor 3 GMA T-Cell Lines; T-cell line 165-F10G, 1.25 μg/mL antigen, autologous B-LCL) was 948 RLU, the “Proliferation … Mean” value (Donor 3 GMA T-Cell Lines; T-cell line 165-F10G, 2.5 μg/mL antigen, autologous B-LCL) was 1080 RLU and the “Proliferation … Mean” value (Donor 3 GMA T-Cell Lines; T-cell line 165-F10G, 3 μg/mL antigen, Day 50 of culturing, No Antigen Value 3752) was 3543 RLU. For the same substance, the “Proliferation … Mean” value (Donor 3 GMA T-Cell Lines; T-cell line 165-F10G, 5 μg/mL antigen, autologous B-LCL) was 1024 RLU, the “Proliferation … Mean” value (Donor 3 GMA T-Cell Lines; T-cell line 165-F10G, 10 μg/mL antigen, Day 50 of culturing, No Antigen Value 3752) was 3702 RLU and the “Proliferation … Mean” value (Donor 3 GMA T-Cell Lines; T-cell line 165-F10G, 10 μg/mL antigen, autologous B-LCL) was 944 RLU. The “Proliferation … Mean” value (Donor 3 GMA T-Cell Lines; T-cell line 165-F10G, 30 μg/mL antigen, Day 50 of culturing, No Antigen Value 3752) was 3794 RLU, the “Proliferation … Mean” value (Donor 3 GMA T-Cell Lines; T-cell line 165-H11G, 1 μg/mL antigen, Day 50 of culturing, No Antigen Value 1485) was 2413 RLU and the “Proliferation … Mean” value (Donor 3 GMA T-Cell Lines; T-cell line 165-H11G, 1.25 μg/mL antigen, autologous B-LCL) was 43 RLU. The “Proliferation … Mean” value (Donor 3 GMA T-Cell Lines; T-cell line 165-H11G, 2.5 μg/mL antigen, autologous B-LCL) was 290 RLU, the “Proliferation … Mean” value (Donor 3 GMA T-Cell Lines; T-cell line 165-H11G, 3 μg/mL antigen, Day 50 of culturing, No Antigen Value 1485) was 2969 RLU and the “Proliferation … Mean” value (Donor 3 GMA T-Cell Lines; T-cell line 165-H11G, 5 μg/mL antigen, autologous B-LCL) was 297 RLU. For the same substance, the “Proliferation … Mean” value (Donor 3 GMA T-Cell Lines; T-cell line 165-H11G, 10 μg/mL antigen, Day 50 of culturing, No Antigen Value 1485) was 2995 RLU, the “Proliferation … Mean” value (Donor 3 GMA T-Cell Lines; T-cell line 165-H11G, 10 μg/mL antigen, autologous B-LCL) was 305 RLU and the “Proliferation … Mean” value (Donor 3 GMA T-Cell Lines; T-cell line 165-H11G, 30 μg/mL antigen, Day 50 of culturing, No Antigen Value 1485) was 3115 RLU. For the same substance, the “Non-Canonical Peptide Non-Reactivity” value (Donor 3 COP T-Cell Lines; 165-B6C) was “GAT 631”, the “Non-Canonical Peptide Non-Reactivity” value (Donor 3 COP T-Cell Lines; 165-C4C) was “GAT 631” and the “Non-Canonical Peptide Non-Reactivity” value (Donor 3 COP T-Cell Lines; 165-C7C) was “GAT 631”. For the same substance, the “proliferation response to non-canonical peptides” value (Donor 3 COP T-Cell Lines; 165-E3C, separate experiment) was “did not react”, the “Non-Canonical Peptide Non-Reactivity” value (Donor 3 COP T-Cell Lines; 165-F3C) was “GAT 631” and the “Non-Canonical Peptide Non-Reactivity” value (Donor 3 COP T-Cell Lines; 165-F6C) was “GAT 631”. For the same substance, the “Non-Canonical Peptide Non-Reactivity” value (Donor 3 COP T-Cell Lines; 165-U3C (so in the source)) was “GAT 631”, the “Nonreactive T-Cell Line” value (Donor 3 COP T-Cell Lines; Donor 3 COP lines, stimulation with the non-canonical GA peptide) was 165-B6C (Donor 3) and 165-C4C (Donor 3) and 165-C7C (Donor 3) and 165-E3C (Donor 3) and 165-F3C (Donor 3) and 165-F6C (Donor 3) and the “Proliferation … Mean” value (Donor 3 COP T-Cell Lines; T-cell line 165-C4C, 1 μg/mL antigen, Day 66 of culture, 0 μg/mL 1881) was 2489. For the same substance, the “Proliferation … Mean” value (Donor 3 COP T-Cell Lines; T-cell line 165-C4C, 3 μg/mL antigen, Day 66 of culture, 0 μg/mL 1881) was 2687, the “Proliferation … Mean” value (Donor 3 COP T-Cell Lines; T-cell line 165-C4C, 10 μg/mL antigen, Day 66 of culture, 0 μg/mL 1881) was 2682 and the “Proliferation … Mean” value (Donor 3 COP T-Cell Lines; T-cell line 165-C7C, 1.25 μg/mL antigen, autologous B-LCL) was 232 RLU. The “Proliferation … Mean” value (Donor 3 COP T-Cell Lines; T-cell line 165-C7C, 2.5 μg/mL antigen, autologous B-LCL) was 204 RLU, the “Proliferation … Mean” value (Donor 3 COP T-Cell Lines; T-cell line 165-C7C, 5 μg/mL antigen, autologous B-LCL) was 200 RLU and the “Proliferation … Mean” value (Donor 3 COP T-Cell Lines; T-cell line 165-C7C, 10 μg/mL antigen, autologous B-LCL) was 184 RLU. For the same substance, the “Proliferation … Mean” value (Donor 3 COP T-Cell Lines; T-cell line 165-F3C, 1 μg/mL antigen, Day 77 of culture, 0 μg/mL 1563) was 2389, the “Proliferation … Mean” value (Donor 3 COP T-Cell Lines; T-cell line 165-F3C, 3 μg/mL antigen, Day 77 of culture, 0 μg/mL 1563) was 2249 and the “Proliferation … Mean” value (Donor 3 COP T-Cell Lines; T-cell line 165-F3C, 10 μg/mL antigen, Day 77 of culture, 0 μg/mL 1563) was 2391. The “Proliferation … Mean” value (Donor 3 COP T-Cell Lines; T-cell line 165-F6C, 1.25 μg/mL antigen, Day 76 of culture, No Antigen value 517) was 516, the “Proliferation … Mean” value (Donor 3 COP T-Cell Lines; T-cell line 165-F6C, 2.5 μg/mL antigen, Day 76 of culture, No Antigen value 517) was 479 and the “Proliferation … Mean” value (Donor 3 COP T-Cell Lines; T-cell line 165-F6C, 5 μg/mL antigen, Day 76 of culture, No Antigen value 517) was 463. The “Proliferation … Mean” value (Donor 3 COP T-Cell Lines; T-cell line 165-F6C, 10 μg/mL antigen, Day 76 of culture, No Antigen value 517) was 449.
